The values below are quoted from earlier work in patent US11033514B2 (priority 2016, dated 2021).

Where [1] appears, read: Nguyen et al. (2009), oral dose 5 grams.

On to `Oc1ccc(/C=C/c2cc(O)cc(O)c2)cc1` [resveratrol, 3,5,4′-trihydroxy-trans-stilbene], for which the Half-Life (Goldberg et al. (2003), oral dose 25 mg) was 2 h. Moreover, under setting [1], the “% of orally administered dose of resveratrol bioavailable” value is reported as “(0.012% of orally” and the “Unconjugated/Free Resveratrol in plasma (Bioavailability)” value is 2400 nmol/L.
Consider `Oc1ccc(/C=C/c2cc(O)cc(O)c2)cc1` [Synthetic resveratrol], for which, for the setting “in vivo, po”, the “Half life in blood” value is 0.5 h and the Plasma level is 5 to 40 nM.
